The conditions of data set [1]: in vivo; cited from earlier work.
Data set [2] has as its target T1, insulin-insulin interaction (Homo sapiens, UniProt P01308).
T1 construct: 28; purchased Novo Nordisk A/S, Denmark Actrapid
The experiment in a line: SPR: effect of substances mixed with insulin in solution on insulin-insulin interaction. In kind it is binding. Particulars: for effect of additive on insulin-insulin interaction: pH 5, insulin 10 μM, zinc sulfate in molar ratios higher than insulin, EDTA up to 10 μM. As for the experimental part: BiacorA Biacore 3000 instrument was employed for the interaction measurements based on surface plasmon resonance (SPR). Interaction analyses were performed at 25° C. in 10 mM Na-citrate buffers pH 3, 4, 5, 10 mM bis-Tris, pH 6, and 10 mM Tris/HC1, pH 7, all buffers containing 100 mM NaCl and 0.005% 5P20. Flow rates for the binding analyses were kept at 20 μl/min. […] Insulin was immobilized on a carboxymethyl-modified dextran surface via both amine and carboxyl coupling, using the surface thiol method, in two different lanes of Biacore CM5 chips. The immobilization was carried out according to the procedure described in the kits. In brief, the sensor chip surface was first washed with 4 M LiCl/HBS for 1 min and then with 0.2% SP20/HBS for 1 mM. The surface was activated according to standard procedure with an injection of 0.05 M NHS/0.2 M EDC for 7 min. Desalted insulin solution was diluted in acetate buffer, pH 4.5, to 20 μg/ml and injected at 50/min for different time intervals. For surface thiol coupling, the surface was first activated with 0.05 M NHS/0.2 M EDC for 2 min followed by a 3 min injection of 40 mM cystamine dihydrochloride and then 0.1 M DTE for 3 min. […] The mixture was incubated for 10 mM at room temperature and excess PDEA was removed on a NAP-10 column. The purified PDEA ligand was injected for 7 min, soon after DTE, and finally the surface was washed with 20 mM PDEA in 0.1 M sodium acetate, 1.0 M NaCl. For quick regeneration of the surface, 2 M guanidine-HC1, pH 6.4, was employed. For controls, lanes activated and deactivated according to the standard procedures were used. For subtraction of noise from the data, running buffer only was injected to all surfaces. For the C-terminal attachment, surface-thiol coupling to 4000-5000 RU was used, and for N-terminal attachment, amine coupling to 800-1000 RU as achieved on different CM5 chips. However for kinetic analysis immobilization was carried out in a controlled condition and around 1000 RU for C-terminal and 400 RU for N-terminal coupling were immobilized. A surface activated with EDC/NHS and deactivated with ethanolamine was used as a control surface for N-terminally immobilized insulin and a surface treated with EDC/NHS, cysteine/DTE and finally deactivated with PDEA-NaCl was used as a control for C-terminally immobilized insulin. Biacore data were analyzed with Bia-evaluation software 4.1. All calculations based on numerical approaches, including simulations and global curve fitting for estimates of active concentrations, were performed with IGOR Pro (version 4.01.A, WaveMetrics, Inc.). However, C-peptide, mixed with insulin in solution, influences the insulin-insulin monomer interactions measured above. […] This elevated interaction can be seen at different pH from 3-7. The phenomenon of more pronounced interaction was clearer when concentrations higher than 0.5 μM were used then below 0.5 μM. […] All concentrations were run in triplicates and in random order.
For orientation: In SPR one partner is held on a chip, and binding of the other changes the refractive index at the surface.

Data set [3] can be described thus: s.c. injection of C-peptide plus soluble insulin (CI-day) vs insulin plus diluent (I-day), glucose clamp, Type 1 diabetic patients. In kind it is in vivo, human. As to the method:
Apart from insulin they had no other medication. All patients received injections of soluble insulin before meals and intermediate-acting insulin at bedtime. Six patients had simplex retinopathy and two of these (nos. 4 and 8) also had microalbuminuaria. All subjects were informed of the purpose, nature and possible risks before giving their consent to participate in the study, which was approved by the local Ethics Committee. The experiments were carried out on two days separated by at least one week. The patients were admitted to the hospital at 8 p.m. in the evening before the study day. They received their last dose of insulin at 4-6 p.m. In order to clear the subcutaneous depots of insulin no intermediate-acting insulin was given at bedtime. Instead, an intravenous infusion of insulin was started at the time of admission. […] On the study day the investigation started at 7.30 a.m. after an overnight fast. A short teflon catheter was inserted into an antecubital vein for blood sampling. […] The injections were given with an automatic injection device (which allowed standardization of speed and depth) approximately 100 mm lateral to the umbilicus into the middle of the subcutaneous tissue, the depth of which was predetermined with ultrasound. After the injections plasma glucose was allowed to decrease to 3.5 mmol/l, whereafter it was maintained at 3.5-5 mmol/l using a variable glucose infusion (DeFronzo R, Tobin J, Andres R, American Journal of Physiology 237:[…]-[…], 1979) The patients were followed for 6 hours. Blood samples for the determination of plasma glucose, free insulin, C-peptide, FFA and glucagon were taken at timed intervals. […] Plasma free insulin was determined by radioimmunoassay after immediate polyethylene glycol precipitation (Arnquist H, Olsson P, von Schenk H, Clinical Chemistry 33:93-96, 1987). C-peptide (Heding L, Diabetologia 11:541-548, 1975) and glucagon were also analyzed by radioimmunoassay using a commercially available kit (MILAB, Malmö, Sweden). Plasma […], Greenberg […], Goetz F, Metabolism 35:122-125, 1986) was determined by a fluorometric method. Standard statistical methods including Wilcoxon's nonparametric test, Student's paired t-test and linear regression analyses were performed when applicable. Results are presented as mean values±SEM. […] The areas under the plasma insulin, and free fatty acid concentration curves were computed by trapezoidal integration.

The target of data set [4] is T2, insulin (Homo sapiens, UniProt P01308).
T2 construct: 28; purchased Novo Nordisk A/S, Denmark Actrapid
T2 sequence (P01308 25-54 limits assumed): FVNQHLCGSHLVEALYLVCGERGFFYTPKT
T2 sequence (P01308 90-110 limits assumed): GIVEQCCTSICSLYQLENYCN
Put plainly: Non-denaturing nano-electrospray mass spectrometry of insulin, C-peptide and control peptides. In kind it is binding. The settings on record: ESI-MS. As to the method: For mass spectrometric analysis, preparation of concentrated insulin stock solution was performed essentially as described [Nettleton et al, 2000, Biophys J. 79:1053]. Briefly, insulin (NovoNordisk A/S, Denmark) was concentrated to 100 μM using ultrafiltration spin-filters (NanoSep, PallGellman, MWCO: 3000 Da). This stock solution was then buffer-exchanged to water, pH 5 (HCl), by extended dialysis. For all experiments, insulin and C-peptide stock solutions were diluted in water-HC1 (pH 5) to reach the indicated concentrations. C-peptide was prepared as a 746 μM stock solution in water and all control peptides were prepared similarly.
Mass spectrometry data were recorded with a QTOF Ultima API instrument (Waters, Milford, Mass.) operated in the positive ion mode. Sample solutions were analyzed by nanoelectrospray from conductive borosilicate glass capillaries (Proxeon Biosystems A/S, Odense, Denmark). Instrument settings were not modified for the observation of non-covalent complexes, other than that the “cone” and the “RF-lens” settings were set to 90 and 50 V, respectively.
The binding between insulin and C-peptide in the gas-phase was studied by non-denaturing electrospray mass spectrometry using a method analogous to that of Nettleton et al [Nettleton et al, 2000, Biophys J. 79:1053].

Data set [5] deals with T3, immobilized insulin (Homo sapiens, UniProt P01308).
T3 construct: 28; purchased Novo Nordisk A/S, Denmark Actrapid
T3 sequence (P01308 25-54 limits assumed): as the sequence (P01308 25-54 limits assumed) above
The experiment in a line: SPR (Biacore 3000) insulin-insulin interaction, free insulin over chip-immobilized insulin. Particulars: for Kd: C-terminally immobilized insulin, global fit, analyte with two binding sites competing for one site, insulin 0.25-10 μM. It is filed as binding. As to the method:
BiacorA Biacore 3000 instrument was employed for the interaction measurements based on surface plasmon resonance (SPR). Interaction analyses were performed at 25° C. in 10 mM Na-citrate buffers pH 3, 4, 5, 10 mM bis-Tris, pH 6, and 10 mM Tris/HC1, pH 7, all buffers containing 100 mM NaCl and 0.005% 5P20. Flow rates for the binding analyses were kept at 20 μl/min. Insulin was desalted and buffer was exchanged on NAP 10 columns from Amersham Biosciences.
Working insulin solution was prepared after removing the excess of zinc sulfate, meta-cresol and other salts from the original solution by passing through a NAP 10 column in the desired buffer for experiments. The desalted insulin was diluted to 1 mM, aliquoted and stored at −20° C.
Insulin was immobilized on a carboxymethyl-modified dextran surface via both amine and carboxyl coupling, using the surface thiol method, in two different lanes of Biacore CM5 chips. The immobilization was carried out according to the procedure described in the kits. In brief, the sensor chip surface was first washed with 4 M LiCl/HBS for 1 min and then with 0.2% SP20/HBS for 1 mM. The surface was activated according to standard procedure with an injection of 0.05 M NHS/0.2 M EDC for 7 min. Desalted insulin solution was diluted in acetate buffer, pH 4.5, to 20 μg/ml and injected at 50/min for different time intervals. For surface thiol coupling, the surface was first activated with 0.05 M NHS/0.2 M EDC for 2 min followed by a 3 min injection of 40 mM cystamine dihydrochloride and then 0.1 M DTE for 3 min. At the same time, 2-(2-pyridinyldithio)ethaneamine hydrochloride (PDEA) insulin was prepared by dissolving 0.5 mg insulin in 0.5 ml 0.1 M MES, adding to it 0.25 ml of (15 mg/ml) PDEA in 0.1 M MES, pH 5, and 25 μl 0.4M EDC. The mixture was incubated for 10 mM at room temperature and excess PDEA was removed on a NAP-10 column. The purified PDEA ligand was injected for 7 min, soon after DTE, and finally the surface was washed with 20 mM PDEA in 0.1 M sodium acetate, 1.0 M NaCl. For quick regeneration of the surface, 2 M guanidine-HC1, pH 6.4, was employed. For controls, lanes activated and deactivated according to the standard procedures were used. For subtraction of noise from the data, running buffer only was injected to all surfaces.
For the C-terminal attachment, surface-thiol coupling to 4000-5000 RU was used, and for N-terminal attachment, amine coupling to 800-1000 RU as achieved on different CM5 chips. However for kinetic analysis immobilization was carried out in a controlled condition and around 1000 RU for C-terminal and 400 RU for N-terminal coupling were immobilized. […]
Biacore data were analyzed with Bia-evaluation software 4.1. […]

Like-named read-outs stand apart in the source and are kept apart here.

Results on nine compounds are retold here after US20100216693A1, “COMPOSITIONS AND METHODS OF TREATING DIABETES” (priority 2005, published 2010).

T1 sequence (P01308 25-54 limits assumed): as above

As to “zinc insulin (Lente): human insulin preparation, zinc insulin, with extended duration”, in data set [1], the effective duration was 12 to 20 h, the onset of action is 120 to 240 min and the peak action is 4 to 10 h.
`O=C(O)CN(CCN(CC(=O)O)CC(=O)O)CC(=O)O` [EDTA]: the “effect of additive on insulin-insulin interaction” value in data set [2] is recorded as “promoted insulin-insulin interaction”.
As to “C-terminal pentapeptide: pentapeptide EGSLQ (SEQ ID NO. 2), residues 27-31 of native human C-peptide (Pentapeptide of C-peptide)”, the “enhancement of insulin-insulin binding relative to native C-peptide” value in data set [2] (1:1 molar ratio (FIG. 15)) is on record as “as equally effective as the native C-peptide”. In addition, the “stimulation of SPR-measurable binding in mixture with insulin in the flow-through solution” value in data set [2] (Example 10) is listed as “stimulated SPR-measurable binding”.
`O=S(=O)([O-])[O-].[Zn+2]` [zinc sulfate]: the “effect of additive on insulin-insulin interaction” value in data set [2] was “diminished insulin interaction”.
For the compound “I: soluble insulin (Humulin; 10U) and C-peptide diluent, injected s.c.”, the “AUC for plasma FFA concentration 0-360 min” value in data set [3] (0-360 min) was determined as 129 ± 17 mmol·min/L. Moreover, the “plasma FFA 10 min after the injections” value in data set [3] (30 min after cessation of i.v. insulin infusion) stood at 0.80 ± 0.11 mmol/L. Moreover, in data set [3] (after correction for the plasma free insulin area, p<0.01), the “AUC for plasma FFA concentration 0-180 min” value was 55.6 ± 5.1 mmol·min/L. Moreover, in data set [3] (human, in vivo), the “area under the plasma IRI curve (0-360 min)” value worked out at 5847±430 mU/l×min and the “plasma glucose at the beginning of the glucose infusions” value was found to be 3.5 ± 0.05 mmol/L. Moreover, the “plasma C-peptide at 360 min” value in data set [3] (mean±SEM) worked out at 0.10 ± 0.02 nmol/L. The “patients requiring intravenous infusion of glucose to avoid hypoglycemia” value in data set [3] (nine patients) is on record as 7 of 9. Also, the “time of peak plasma insulin (IRI)” value in data set [3] (s.c. insulin 10 U) was 88 ± 11 min. The “duration of glucose infusion” value in data set [3] (variable glucose infusion to avoid hypoglycemia) was determined as 124 ± 28 min.
For the compound Human insulin, in data set [4], the “insulin concentration at which dimerization is detectable” value worked out at 3 µM and the “insulin concentration at which higher polymers up to hexamers are detectable” value came to 30 µM. In data set [5] (read-out: dissociation constant KD1 (slow off rate)), the Kd is 2.71 µM. Moreover, the Kd in data set [5] (read-out: dissociation constant KD2 (rapid off rate)) came out at 4.65 µM. Also, the “lowest insulin solution concentration at which binding is noticeable” value in data set [5] (pH 5) is 0.05 µM. Further, the “pH of highest (maximum) insulin-insulin binding interaction” value in data set [5] (pH range 3-7) came out at 5.
Take Lispro: in data set [1], the effective duration was 4 to 6 h, the onset of action was 5 to 15 min and the peak action was 0.5 to 1.5 h.
Take regular insulin: regular human insulin: in data set [1], the effective duration is 8 to 10 h, the onset of action is 30 to 60 min and the peak action was 2 to 3 h.
Regarding Insulin Glulisine, the “action / pharmacokinetic profile compared with other rapid acting analogues” value in data set [1] is “pharmacokinetic profile similar to Lispro and Aspart”.
